This is an account of results in ChEMBL document CHEMBL1154198, “Chemical genetics of Plasmodium falciparum” (Nature, 2010).

For orientation: EC50 means the midpoint of the concentration-response curve.

Assay [1] deals with Plasmodium falciparum. The assay is described as follows: ST_JUDE: Plasmodium falciparum K1 EC50 (uM) as measured by SYBR green dye. It counts as functional, organism-based.
For assay [2], the system named is Plasmodium falciparum. The assay is described as follows: ST_JUDE: Plasmodium falciparum 3D7 EC50 (uM) as measured by SYBR green dye. It is filed as functional, organism-based.

Bounds are passed on as bounds.

Consider `Oc1ccc(Cl)cc1Nc1ncnc2ccc(Br)cc12`, for which the EC50 in assay [1] was 3.85 µM; in assay [2], above 15 µM.

In the case of `CCOC(=O)c1ccc2nc(C)c(CN3CCN(C(c4ccccc4)c4ccccc4)CC3)c(O)c2c1`, the EC50 in assay [1] and in assay [2] was above 15 µM throughout.

For the compound `Cc1cccc2sc(NNC(=O)c3ccc(S(=O)(=O)N4CCCCC4C)cc3)nc12` (configuration not stated), the EC50 in assay [1] and in assay [2] was above 15 µM throughout.

In the case of `O=C(Nc1cccc(C(F)(F)F)c1)c1cc(Cl)ccc1O`, the EC50 is 1.2 µM in assay [1] and 0.973 µM in assay [2].

In the case of `CCCCc1ccc(NC(=O)CSc2nc3c(c(=O)n2C)SC(C)C3)cc1` (configuration not stated), the results for the EC50 in assay [1] and in assay [2] were 2.05 µM and 2.93 µM, respectively.

Take `CCOc1ccccc1CNC(=O)C1c2ccccc2C(=O)N(CC(C)C)C1c1cccs1` (configuration not stated): the EC50 in assay [1] came to 1.49 µM; in assay [2] it was 1.43 µM.

As to `Cc1ccccc1CN1C(=O)CSc2ccc(C(=O)NCCC(C)C)cc21`, the EC50 in assay [1] and in assay [2] was above 15 µM each time.

Turning to `COc1ccc(N2CCN(C(=S)Nc3ccccc3Cl)CC2C)cc1` (configuration not stated), the EC50 turned out to be 3.56 µM in assay [1] and 1.4 µM in assay [2].

For `Oc1c(CN2CCCCC2)cc(Br)c2cccnc12`, the results for the EC50 in assay [1] and in assay [2] were 2.32 µM and 3.42 µM, respectively.

As for `COc1ccc(OC)c(NC(=O)CSc2nc(-c3ccccc3Cl)ns2)c1`, the EC50 in assay [1] is 1.42 µM; in assay [2] it was 1.25 µM.

As for `COCCn1c(SCC(=O)Nc2cc(C(F)(F)F)ccc2Cl)nc2c(c1=O)SC(C)C2` (configuration not stated), the values for the EC50 in assay [1] and in assay [2] were 0.568 µM and above 15 µM, respectively.

In the case of `Oc1ccccc1/C=N\c1ccc(-c2nc3cc(-c4ccc5[nH]c(-c6ccc(/N=C\c7ccccc7O)cc6)nc5c4)ccc3[nH]2)cc1`, the concentration for a half-maximal effect (EC50) in assay [1] stood at 0.151 µM; in assay [2] it was 0.207 µM.

As for `CCOC(=O)C(=O)Oc1cc2oc(C(=O)OCC)c(-c3nc4ccccc4s3)c(=O)c2cc1CC`, the EC50 in assay [1] and in assay [2] was above 15 µM throughout.

Turning to `Cc1ccc(S(=O)(=O)NCC(c2cccnc2)N2CCN(c3ccc(F)cc3)CC2)cc1` (configuration not stated), the values for the EC50 in assay [1] and in assay [2] were 9.43 µM and above 15 µM, respectively.

For `CCC1=Nc2cc(C(=O)NCc3ccco3)ccc2Sc2ccc(Cl)cc21`, the values for the EC50 in assay [1] and in assay [2] were 6.27 µM and 3.74 µM, respectively.

Turning to `CCOC(=O)N1CCC(NC(=S)Nc2ccc(C(C)(C)C)cc2)CC1`, the EC50 in assay [1] came to 2.64 µM; in assay [2], 9.44 µM.

Consider `CCOC(=O)c1ccc(OCC2c3cc(OC)c(OC)cc3CCN2C(=O)Nc2ccccc2)cc1` (configuration not stated), for which the EC50 in assay [1] turned out to be 0.776 µM; in assay [2] it was 4.03 µM.

With `COCCCn1c(=N)c(C(=O)NCc2cccnc2)cc2c(=O)n3cccc(C)c3nc21`, the EC50 in assay [1] and in assay [2] was above 15 µM throughout.

As for `CCCOc1cc(O)c(-c2[nH]nc(C)c2Oc2ccccc2)cc1CC`, the EC50 in assay [1] amounted to 2.1 µM; in assay [2], 3.83 µM.

As for `CCc1ccc(NC(=O)CN2N=NC3C(=O)N(c4ccc(Br)cc4)C(=O)C32)cc1` (configuration not stated), the EC50 in assay [1] and in assay [2] was above 15 µM each time.

With `Cc1cc(N(C)C)nc(Nc2ccc(NS(=O)(=O)c3cccc(Cl)c3)cc2)n1`, the EC50 in assay [1] was above 15 µM; in assay [2], 7.69 µM.

Take `CCCN1CC=C2C(C#N)=C(N)C(C#N)(C#N)C(c3ccccc3C(F)(F)F)C2C1` (configuration not stated): the EC50 in assay [1] was determined as 0.479 µM; in assay [2] it was 1.12 µM.

As for `Cc1ccc(C)c(Oc2c(C(F)(F)F)oc3c(CN4CCN(Cc5ccccc5)CC4)c(O)ccc3c2=O)c1`, the EC50 in assay [1] worked out at 0.274 µM; in assay [2], 0.612 µM.

`COc1ccc(C2C(C(=O)Nc3cc(C)ccc3OC)c3ccccc3C(=O)N2C)cc1` (configuration not stated): the EC50 in assay [1] came to 3.73 µM; in assay [2] it was 2.1 µM.

As for `COc1ccccc1C(=O)N(Cc1cccnc1)c1nc2c(Cl)cccc2s1`, the EC50 in assay [1] is 6.66 µM; in assay [2], above 15 µM.

Regarding `COc1ccc(O)c(CN2CCN(Cc3ccc(C)cc3)CC2)c1`, the EC50 in assay [1] was determined as 0.988 µM; in assay [2] it was 1.62 µM.

`C=CCN1C(=S)NC2c3cc(Br)ccc3OC1(C)C2C` (configuration not stated): the results for the EC50 in assay [1] and in assay [2] were 3.1 µM and 2.58 µM, respectively.

Regarding `C=CCn1c(SCC(=O)Nc2ccccc2OC)nc2sc(C)cc2c1=O`, the EC50 was determined as 4.01 µM in assay [1] and 0.722 µM in assay [2].

For `CCCCN(C)Cc1c(C)nc2ccc(OCc3ccccc3)cc2c1O`, the EC50 in assay [1] and in assay [2] was above 15 µM throughout.

With `CCCS(=O)(=O)N1CCC(CO)(Cc2ccccc2C(F)(F)F)CC1`, the EC50 came to 2.26 µM in assay [1] and 3.37 µM in assay [2].

As to `Cc1ccc(/C=C2\C(=O)NC(=O)N(c3ccc(Br)cc3)C2=O)cc1[N+](=O)[O-]`, the EC50 in assay [1] stood at 5.16 µM; in assay [2], 4.47 µM.

Regarding `CCCCN(CCCC)CC1OCc2ccccc2CO1`, the EC50 in assay [1] and in assay [2] was above 15 µM in each case.

Regarding `Cc1cccc(/C=C/c2ccc3cccc(O)c3n2)c1O`, the EC50 in assay [1] was found to be 1.33 µM; in assay [2], 4.68 µM.

As to `CCCc1cc(O)nc(-n2nc(C)cc2NC(=O)c2cccc(C)c2)n1`, the EC50 in assay [1] was above 15 µM; in assay [2], 2.22 µM.

Take `CCN(CC)CCNC(=O)c1c(C)oc2c1C(=O)c1ccccc1C2=O`: the EC50 was 0.191 µM in assay [1] and 0.256 µM in assay [2].

For the compound `CCOC(=O)c1c(NC(=S)NCCc2ccccc2)sc2c1CC(C)(C)OC2`, the EC50 in assay [1] and in assay [2] was above 15 µM in each case.

Turning to `CC(=O)CCc1ccc(OCCN2CCOCC2)cc1`, the concentration for a half-maximal effect (EC50) in assay [1] and in assay [2] was above 15 µM throughout.

Take `O=C(Cc1cccc(F)c1)N1CCC(=O)N(CC2CC2)CC1`: the EC50 in assay [1] and in assay [2] was above 15 µM each time.

Take `CCC(=O)NC(c1ccccc1OC)c1ccc2cccnc2c1O` (configuration not stated): the EC50 in assay [1] was 4.28 µM; in assay [2] it was 2.27 µM.

For the compound `CCc1ccc(S(=O)(=O)Nc2ccc(Nc3nc(C)cc(Nc4ccc(OC)cc4)n3)cc2)cc1`, the values for the EC50 in assay [1] and in assay [2] were 9.28 µM and 0.577 µM, respectively.

For `Cc1ccc2ccc(C(Nc3ccccn3)c3cccc(Br)c3)c(O)c2n1` (configuration not stated), the EC50 in assay [1] was 4.78 µM; in assay [2], above 15 µM.

As for `COc1ccc(C2(O)C[N+](c3ccc(C)cc3)=C3SCCCN32)c(F)c1` (configuration not stated), the EC50 in assay [1] and in assay [2] was above 15 µM each time.

As for `O=C(CSc1ccccc1[N+](=O)[O-])Nc1cccc(Br)c1`, the EC50 in assay [1] and in assay [2] was above 15 µM throughout.

Take `COc1ccc(C2Sc3ccccc3N=C3C2=C(O)c2ccccc23)cc1` (configuration not stated): the EC50 in assay [1] worked out at 2.31 µM; in assay [2] it was 1.74 µM.

Regarding `CCCCOc1ccc(NC2=C(N3CCCCC3)C(=O)c3ccccc3C2=O)cc1`, the EC50 is 0.0135 µM in assay [1] and 0.0145 µM in assay [2].

On to `O=C(Nc1cccc(F)c1)c1cc2ccccc2oc1=O`, for which the EC50 in assay [1] and in assay [2] was above 15 µM in each case.

For the compound `Oc1c(CN2CCN(c3cccc(C(F)(F)F)c3)CC2)cc(COCc2ccccc2)c2cccnc12`, the figures for the EC50 in assay [1] and in assay [2] were 1.45 µM and 2.33 µM, respectively.

For `Cc1ccc(C(C)(C)C)c(OCCCCn2ccnc2)c1`, the EC50 was found to be 5.68 µM in assay [1] and 6.66 µM in assay [2].

`Cc1ccnc(N2C(=O)c3ccccc3C2Nc2ccccc2C)c1` (configuration not stated): the EC50 in assay [1] and in assay [2] was above 15 µM each time.

As for `CCc1cccc2c(C#N)cn(CCOc3ccccc3Cl)c12`, the EC50 is 0.577 µM in assay [1] and 0.516 µM in assay [2].

Take `CN(C)CCCNCc1ccc2[nH]c3c(c2c1)CCCC3`: the EC50 was above 15 µM in assay [1] and 3.4 µM in assay [2].
